Here are results for 1 compound from BindingDB's records for doi:10.1021/acs.jmedchem.6b01918 (Bristol Myers Squibb, 2017).

The test can be described thus: Inhibition of Nav1.7 in C57BL/6 […] embryonic DRG cells assessed as blockade of spontaneous neuronal firing by Maestro microelectrode array analysis.

A word on the IC50: it is the midpoint of a concentration-inhibition curve.

As for `N[C@H]1CC[C@@H](CNc2cc(F)c(S(=O)(=O)Nc3nccs3)cc2Cl)CC1`, the IC50 worked out at 1.2 nM.
